Like-named read-outs stand apart in the source and are kept apart here.
Experiments:
HeLa = tested on: HeLa; design: method as in not given; conditions: previously reported by the authors, ref not given, cited from earlier work
A549 [1] = tested on: A549; design: method as in not given; conditions: previously reported by the authors, ref not given, cited from earlier work
[2] = Stability in serum-free DMEM containing 5% DMSO by UV–vis; type: physicochemical; conditions: DMEM with 5% DMSO, 25 μM, 37 °C; for stability in serum-free DMEM, UV–vis spectral changes, first 4 h: dark or with 5 min irradiation at 450 nm
From the text: The stability of complexes 1–4 was then investigated in more biologically relevant media by UV–visible spectroscopy. First, the stability of the complexes was studied in phosphate-buffered saline (PBS) containing 5% DMSO (Figure S30). […] Only a decrease in the intensity of all bands was observed, which could be attributed to partial aggregation and/or precipitation. […] The stability of complexes 1–4 was next studied in serum-free DMEM cell culture containing 5% DMSO (Figure S31). […] This final species seemed to have spectral features similar to those observed for complex 4 (Figure S31A). […] The similarity of the spectral features of the transformed species in all cases seemed to point to the formation of a common species upon incubation in DMEM, which we tentatively attribute to the decoordination of the picolinate ligands with a substituent-dependent kinetics; the COOH group favored the release of the picolinate ligand, while both NH2 and OH substituents seemed to slow down this process.
The UV–vis spectra of complexes 1–4 were recorded in PBS:DMSO (95/5) and serum-free DMEM:DMSO (95/5) at a concentration of 25 μM on a Cary 50 spectrophotometer (Varian).

MDA-MB-231 [3] = experiment: MTT cell viability assay on MDA-MB-231 cells, dark and 450 nm irradiation; type: cell-based, human; conditions: for EC50: MTT
From the text: (§1) (C∧N) cyclometalated Pt(II) complexes have been previously reported to have strong antiproliferative activities when associated with phenanthroline-based, diphosphine, acyclic diamino carbenes, or picolinate ligands. In particular, (Me2N-pbt)-cyclometalated platinum complexes have been previously reported by some of us to have antiproliferative properties in the micromolar range on a panel of cancer cell lines, prompting us to investigate the anticancer properties of complexes 1–4 in dark conditions and, considering their high quantum yield (ϕΔ) of ^1O2 generation, under irradiation conditions. Due to the poor solubility of the complexes in an aqueous environment, complexes 1–4 were first dissolved in DMSO and diluted in the culture media to reach a final concentration of 1% DMSO when incubated with the cells. All complexes were screened against the so-called “triple-negative” breast cancer cell line MDA-MB-231, lung adenocarcinoma cell line A549, and the noncancerous breast cell line MCF-10A for 72 h in dark conditions and under 5 min irradiation at 450 nm (see Experimental Section for details). The irradiation time was kept short to prevent light-induced toxicity of the energetic wavelength observed at longer irradiation times (data not shown). The measurement of the effective concentration at 50% (EC50) was carried out using the classical MTT assay, and the data are provided in Table .
(§2) In dark conditions, we could notice a strong influence of substituents on the picolinate ligands. […] This can be correlated with its poor stability in the culture medium mentioned above, which might reduce its cellular uptake. […] However, in dark conditions, no particular selectivity for cancer cells could be observed with similar activity measured against the noncancerous cell line MCF-10A. For the “light” experiments, the cells were preincubated with the complexes for 4 h in the dark, irradiated at 450 nm for 5 min, and then put back in the dark until 72 h. The photoactivity index (PI) values, defined as the ratio between the EC50 in dark conditions and the EC50 after irradiation for each cell line, are shown in Figure .
(§3) The human lung adenocarcinoma cell line A549 and human breast cancer cell line MDA-MB-231 were cultivated in DMEM (Dulbecco’s modified Eagle’s medium) containing GlutaMax I supplemented with 10% FBS at 37 °C in a humidified atmosphere and 5% CO2. The noncancerous cell line MCF-10A was maintained in DMEM:F12 (1:1) cell culture media, 5% heat-inactivated horse serum, supplemented with HEPES (20 mM), L-glutamine (2 mM), epidermal growth factor (20 ng/mL), hydrocortisone (500 ng/mL), cholera toxin (100 ng/mL), and insulin (10 μg/mL). Cell viability was evaluated by using a colorimetric method based on the tetrazolium salt MTT [3-(4,5-dimethylthiazol-2-yl)-2,5-diphenyltetrazolium bromide], which is reduced by viable cells to yield purple formazan crystals. Cells were seeded in 96-well plates at a density of 40000 cells/mL (100 μL per well). Stock solutions were prepared in DMSO for complexes 1–4 and in water for cisplatin. […] For dark experiments, after overnight attachment, a dilution series of the compounds was added to the medium, and the cells were incubated for a further 72 h. For the irradiated experiments, after overnight attachment, a dilution series of the compounds was added to the medium, and the cells were preincubated for 4 h. The cells were then irradiated at 450 nm for 5 min with a Kessil Lamp (power: 3 mW/cm^2, 1.13 × 10^–8 Einstein/s at 20 cm distance between the light source and 96-well plate) and the incubation was continued until 72 h. After 72 h, the medium was removed and the cells were incubated with MTT solution in PBS (10 μL of 5 mg/mL) for 2–3 h. The formed purple formazan crystals were dissolved in 100 μL of DMSO by thorough shaking, and the absorbance at 580 nm was read using a microplate reader (FLUOstar OPTIMA, BMG Labtech). Each test was performed with at least 3 replicates and repeated at least 3 times. […]

A549 [4] = experiment: MTT cell viability assay on A549 cells, dark and 450 nm irradiation; type: cell-based, human; conditions: for EC50: MTT
From the text: as §1, §2, §3

MCF-10A [5] = experiment: MTT cell viability assay on noncancerous MCF-10A cells, dark and 450 nm irradiation; type: cell-based, human; conditions: for EC50: MTT
From the text: as §1, §2, §3

[6] = Singlet oxygen generation, NIR emission at 1274 nm versus phenalenone; type: physicochemical; conditions: aerated acetonitrile 5 × 10^–5 M, 298 K, excitation 365 nm, reference phenalenone
Procedure: In aerated DMSO solutions, complexes 1–3 display a fluorescence band only at ca 510 nm, attributed to ^1LL′CT/^1ILCT, due to easy quenching of the phosphorescence by oxygen. However, upon prolonged photoexcitation at 365 nm, a continuous enhancement of the phosphorescence band is observed. Simply irradiating with a hand UV–vis lamp, the initial blue-green emission gradually shifts to the orange enhanced emission. The phosphorescence increases its maximum intensity in ca 15 1, 8 2, or 12 min 3 (Figures and S23). […] This relatively rare behavior has been previously observed by us , and other groups, and is explained by the occurrence of a local sensitization caused by energy transfer from the low-energy triplet to ^3O2-producing singlet ^1O2, which is able to selectively react with the solvent creating a free oxygen microenvironment that switches-on a phosphorescence band due to ^3ILCT at 580 nm. The strong sensitivity of the phosphorescence emission in these complexes encourages us to determine their efficiency as ^1O2 sensitizers. The singlet oxygen generation of complexes 1–3 was examined in acetonitrile solution (5 × 10^–5 M) using a near-infrared detector upon excitation at 365 nm, detecting the characteristic emission profile of ^1O2 at λem ∼ 1274 nm (Figure ).

Solubility (statements) = type: physicochemical
A549 [7] = tested on: A549; design: method as in earlier work; conditions: 72 h, dark; footnote b: values taken from ref (number not given); cited from earlier work
MCF-10A [8] = tested on: MCF-10A; design: method as in earlier work; conditions: 72 h, dark; footnote b: values taken from ref (number not given); cited from earlier work
MDA-MB-231 [9] = tested on: MDA-MB-231; design: method as in earlier work; conditions: 72 h, dark; footnote b: values taken from ref (number not given); cited from earlier work
CT-DNA = experiment: Interaction with CT-DNA by circular dichroism; type: binding, calf; conditions: 50 μM CT-DNA, 50 μM cisplatin, 37 °C, 24 h in the dark (positive control)
Procedure: Platinum(II) complexes, such as cisplatin, presenting exchangeable ligands are well known to interact with puric bases of DNA, leading to the formation of intra- and interstrand cross-links and in turn to transcription inhibition, cell cycle arrest, and ultimately cell death. Based on the reactivity in the cell culture medium, the interaction of complexes 1–4 and cisplatin with CT-DNA was investigated by circular dichroism (CD) spectroscopy after incubation at 37 °C for 24 h in the dark or for 4 h incubation and 5 min irradiation at 450 nm, followed by 20 h incubation, following a reported protocol. The CD spectrum of CT-DNA presents a positive peak at 280 nm, assigned to base stacking, and a negative peak at 245 nm, assigned to helicity.
A stock solution of calf thymus DNA (CT-DNA) was prepared in 5 mM TRIS·HCl, and 50 mM NaCl (pH 7.4). The concentration of nucleotides was assayed at 260 nm using ε = 6600 M^–1.cm^–1 (c = 3.38 mM). […] Circular dichroism spectra (238–340 nm, 5 scans) were recorded in a 1 cm path length cell on a J-815 CD spectrometer (JASCO) at 20 °C with 0.1 nm data pitch, 50 nm/min scan speed, and 1 nm bandwidth.

[10] = 4 h preincubation, 5 min irradiation at 450 nm, then dark until 72 h, read-out: EC50 MDA-MB-231 light
[11] = 72 h incubation at 37 °C, dark, read-out: EC50 MDA-MB-231 dark
[12] = 4 h preincubation, 5 min irradiation at 450 nm, then dark until 72 h, read-out: EC50 A549 light
[13] = 72 h incubation at 37 °C, dark, read-out: EC50 A549 dark
[14] = 4 h preincubation, 5 min irradiation at 450 nm, then dark until 72 h, read-out: EC50 MCF-10A light
[15] = 72 h incubation at 37 °C, dark, read-out: EC50 MCF-10A dark

Compound	stability in serum-free DMEM, UV–vis spectral changes, 24 h [2]	stability in serum-free DMEM, UV–vis spectral changes, first 4 h [2]	EC50 (MDA-MB-231 [3]; [10]) [nM]	EC50 (MDA-MB-231 [3]; [11]) [nM]	EC50 (A549 [4]; [12]) [nM]	EC50 (A549 [4]; [13]) [nM]	EC50 (MCF-10A [5]; [14]) [nM]	EC50 (MCF-10A [5]; [15]) [nM]	quantum yield (ϕΔ) of 1O2 [6] [%]	also measured
[Pt(Me2N-pbt)(o-dpb)]	–	–	–	–	–	–	–	–	–	IC50 (HeLa; 1 min of irradiation (396 nm), read-out: IC50 HeLa upon irradiation): 1500 nM; activity in the dark, HeLa (HeLa; dark): inactive; IC50 (A549 [1]; 1 min of irradiation (396 nm), read-out: IC50 A549 upon irradiation): 830 nM; activity in the dark, A549 (A549 [1]; dark): inactive
[Pt(Me2N-pbt)(pic-κN,O)] [Complex 1]	further evolved	first spectral modification	170 ± 50	500 ± 60	570 ± 30	1500 ± 100	300 ± 100	470 ± 50	13.6	–
[Pt(Me2N-pbt)(3-NH2-pic-κN,O)] [Complex 2]	spectral features of both complexes changed	no spectral changes	260 ± 50	800 ± 200	1000 ± 200	1900 ± 400	400 ± 100	700 ± 200	17.4	–
[Pt(Me2N-pbt)(4-COOH-pic-κN,O)] [Complex 4]	–	quantitative transformation	15900 ± 3600	42400 ± 4200	> 100000	> 100000	15000 ± 900	21700 ± 4200	–	photoactivity index (PI), EC50 dark / EC50 after irradiation, MDA-MB-231 (MDA-MB-231 [3]; 5 min irradiation at 450 nm): very limited phototoxicity; photoactivity index (PI), EC50 dark / EC50 after irradiation, A549 (A549 [4]; 5 min irradiation at 450 nm): very limited phototoxicity; photoactivity index (PI), EC50 dark / EC50 after irradiation, MCF-10A (MCF-10A [5]; 5 min irradiation at 450 nm): very limited phototoxicity; solubility (Solubility (statements)): only soluble in DMSO
N.N.[Cl][Pt][Cl] [Cisplatin]	–	–	–	–	–	–	–	–	–	EC50 (A549 [7]): 1700 ± 500 nM; EC50 (MCF-10A [8]): 2900 ± 800 nM; EC50 (MDA-MB-231 [9]): 20.4 ± 3.4 µM; modification of the CD spectrum of CT-DNA (CT-DNA): decrease of the band at 245 nm and an increase of the band at 280 nm

From publication PMC12176268, “Structural Features and Photophysical and Antiproliferative Properties of Me2N‑pbt-Cycloplatinated Complexes with Picolinate Ligands” (Inorganic Chemistry, 2025)
